According to ChEMBL document CHEMBL3885881, “DrugMatrix”:

Species: Rattus norvegicus
Assay: DrugMatrix - Regimen: Daily Repeat
Assay type: toxicity, organism-based, Sprague-Dawley
Set-up: regimen Daily Repeat, gender Male, age 6-8 weeks
Conditions: in vivo, po, route oral GAVAGE, […]; for ABSOLUTE BASOPHIL / ABSOLUTE EOSINOPHIL / ABSOLUTE LYMPHOCYTE / ABSOLUTE MONOCYTE / ABSOLUTE SEGMENTED NEUTROPHIL / BASOPHIL / EOSINOPHIL / ERYTHROCYTE COUNT / HEMATOCRIT / HEMOGLOBIN / LEUKOCYTE COUNT / LYMPHOCYTE / MEAN CORPUSCULAR HEMOGLOBIN / MEAN CORPUSCULAR HEMOGLOBIN CONCENTRATION / MEAN CORPUSCULAR VOLUME / MONOCYTE / NEUTROPHIL / NUCLEATED RED BLOOD CELLS / PLATELET COUNT: tissue Blood; for ALANINE AMINOTRANSFERASE / ALBUMIN / ALKALINE PHOSPHATASE / ASPARTATE AMINOTRANSFERASE / BLOOD UREA NITROGEN / CARBON DIOXIDE / CHLORIDE / CHOLESTEROL / CREATINE PHOSPHOKINASE / CREATININE / GLUCOSE / LACTATE DEHYDROGENASE / LIPASE / PHOSPHORUS / POTASSIUM / SODIUM / TOTAL BILIRUBIN / TOTAL PROTEIN / URIC ACID: tissue Plasma
[1] = 11 mg/kg, 120 h, dose level High, time 5 day
[2] = 72 h, dose 0.26 mg/Kg, dose level Low, time 3 day
[3] = 120 h, dose 0.26 mg/Kg, dose level Low, time 5 day

With C[C@H]1O[C@@H](O[C@H]2[C@@H](O)C[C@H](O[C@H]3[C@@H](O)C[C@H](O[C@H]4CC[C@@]5(C)[C@H](CC[C@@H]6[C@@H]5C[C@@H](O)[C@]5(C)[C@@H](C7=CC(=O)OC7)CC[C@]65O)C4)O[C@@H]3C)O[C@@H]2C)C[C@H](O)[C@@H]1O [DIGOXIN] the “ABSOLUTE BASOPHIL” value [1] was 0 CELLS/uL, the “ABSOLUTE EOSINOPHIL” value [1] was 21.33 CELLS/uL and the “ABSOLUTE LYMPHOCYTE” value [1] was 5911 CELLS/uL. The “ABSOLUTE MONOCYTE” value [1] was 0 CELLS/uL, the “ABSOLUTE SEGMENTED NEUTROPHIL” value [1] was 367.67 CELLS/uL and the BASOPHIL [1] was 0%. For the same compound, the EOSINOPHIL [1] was 0.33%, the “ERYTHROCYTE COUNT” value [1] was 6.17 x10E6/uL and the HEMATOCRIT [1] was 38.03%. For the same compound, the HEMOGLOBIN [1] was 15.03 G/DL, the “LEUKOCYTE COUNT” value [1] was 6.3 x10E3/uL and the LYMPHOCYTE [1] was 94.33%. The “MEAN CORPUSCULAR HEMOGLOBIN” value [1] was 24.37 pg, the “MEAN CORPUSCULAR HEMOGLOBIN CONCENTRATION” value [1] was 39.53 G/DL and the “MEAN CORPUSCULAR VOLUME” value [1] was 61.63 fL. For the same compound, the MONOCYTE [1] was 0%, the NEUTROPHIL [1] was 5.33% and the “NUCLEATED RED BLOOD CELLS” value [1] was 0 /100WBC. The “PLATELET COUNT” value [1] was 1098 x10E3/uL, the “ALANINE AMINOTRANSFERASE” value [1] was 90 u/L and the ALBUMIN [1] was 4.37 G/DL. For the same compound, the “ALKALINE PHOSPHATASE” value [1] was 342 u/L, the “ASPARTATE AMINOTRANSFERASE” value [1] was 79.67 u/L and the “BLOOD UREA NITROGEN” value [1] was 9.33 mg/dL. For the same compound, the “CARBON DIOXIDE” value [1] was 32.67 mmol/L, the CHLORIDE [1] was 95 MEQ/L and the CHOLESTEROL [1] was 90.67 mg/dL. The “CREATINE PHOSPHOKINASE” value [1] was 208.33 u/L, the CREATININE [1] was 0.11 mg/dL and the GLUCOSE [1] was 175.67 mg/dL. The “LACTATE DEHYDROGENASE” value [1] was 92 u/L, the LIPASE [1] was 9.33 u/L and the PHOSPHORUS [1] was 9.27 mg/dL. For the same compound, the POTASSIUM [1] was 4.94 MEQ/L, the SODIUM [1] was 141.5 MEQ/L and the “TOTAL BILIRUBIN” value [1] was 0.17 mg/dL. For the same compound, the “TOTAL PROTEIN” value [1] was 6.23 G/DL, the “URIC ACID” value [1] was 0.5 mg/dL and the “ABSOLUTE BASOPHIL” value [2] was 0 CELLS/uL. The “ABSOLUTE EOSINOPHIL” value [2] was 80.67 CELLS/uL, the “ABSOLUTE LYMPHOCYTE” value [2] was 8480.33 CELLS/uL and the “ABSOLUTE MONOCYTE” value [2] was 0 CELLS/uL. The “ABSOLUTE SEGMENTED NEUTROPHIL” value [2] was 705.67 CELLS/uL, the BASOPHIL [2] was 0% and the EOSINOPHIL [2] was 0.67%. The “ERYTHROCYTE COUNT” value [2] was 5.56 x10E6/uL, the HEMATOCRIT [2] was 34.27% and the HEMOGLOBIN [2] was 13.27 G/DL. For the same compound, the “LEUKOCYTE COUNT” value [2] was 9.27 x10E3/uL, the LYMPHOCYTE [2] was 91.67% and the “MEAN CORPUSCULAR HEMOGLOBIN” value [2] was 23.83 pg. For the same compound, the “MEAN CORPUSCULAR HEMOGLOBIN CONCENTRATION” value [2] was 38.73 G/DL, the “MEAN CORPUSCULAR VOLUME” value [2] was 61.63 fL and the MONOCYTE [2] was 0%. The NEUTROPHIL [2] was 7.67%, the “NUCLEATED RED BLOOD CELLS” value [2] was 0 /100WBC and the “PLATELET COUNT” value [2] was 1014 x10E3/uL. For the same compound, the “ALANINE AMINOTRANSFERASE” value [2] was 79.33 u/L, the ALBUMIN [2] was 3.97 G/DL and the “ALKALINE PHOSPHATASE” value [2] was 406.67 u/L. The “ASPARTATE AMINOTRANSFERASE” value [2] was 82.67 u/L, the “BLOOD UREA NITROGEN” value [2] was 14.67 mg/dL and the “CARBON DIOXIDE” value [2] was 34 mmol/L. The CHLORIDE [2] was 101.33 MEQ/L, the CHOLESTEROL [2] was 79.33 mg/dL and the “CREATINE PHOSPHOKINASE” value [2] was 157.33 u/L. For the same compound, the CREATININE [2] was 0.12 mg/dL, the GLUCOSE [2] was 161 mg/dL and the “LACTATE DEHYDROGENASE” value [2] was 84 u/L. The LIPASE [2] was 10 u/L, the PHOSPHORUS [2] was 9.57 mg/dL and the POTASSIUM [2] was 6.36 MEQ/L. The SODIUM [2] was 146.27 MEQ/L, the “TOTAL BILIRUBIN” value [2] was 0.27 mg/dL and the “TOTAL PROTEIN” value [2] was 5.63 G/DL. The “URIC ACID” value [2] was 1.2 mg/dL, the “ABSOLUTE BASOPHIL” value [3] was 0 CELLS/uL and the “ABSOLUTE EOSINOPHIL” value [3] was 0 CELLS/uL. For the same compound, the “ABSOLUTE LYMPHOCYTE” value [3] was 13719.67 CELLS/uL, the “ABSOLUTE MONOCYTE” value [3] was 0 CELLS/uL and the “ABSOLUTE SEGMENTED NEUTROPHIL” value [3] was 1313.67 CELLS/uL. For the same compound, the BASOPHIL [3] was 0%, the EOSINOPHIL [3] was 0% and the “ERYTHROCYTE COUNT” value [3] was 5.8 x10E6/uL. The HEMATOCRIT [3] was 35.03%, the HEMOGLOBIN [3] was 13.67 G/DL and the “LEUKOCYTE COUNT” value [3] was 15.03 x10E3/uL. The LYMPHOCYTE [3] was 90.33%, the “MEAN CORPUSCULAR HEMOGLOBIN” value [3] was 23.57 pg and the “MEAN CORPUSCULAR HEMOGLOBIN CONCENTRATION” value [3] was 39.03 G/DL. For the same compound, the “MEAN CORPUSCULAR VOLUME” value [3] was 60.4 fL, the MONOCYTE [3] was 0% and the NEUTROPHIL [3] was 9.67%. For the same compound, the “NUCLEATED RED BLOOD CELLS” value [3] was 0 /100WBC, the “PLATELET COUNT” value [3] was 1074 x10E3/uL and the “ALANINE AMINOTRANSFERASE” value [3] was 64.67 u/L. The ALBUMIN [3] was 4.03 G/DL, the “ALKALINE PHOSPHATASE” value [3] was 401.33 u/L and the “ASPARTATE AMINOTRANSFERASE” value [3] was 82.67 u/L. The “BLOOD UREA NITROGEN” value [3] was 15.33 mg/dL, the “CARBON DIOXIDE” value [3] was 31.67 mmol/L and the CHLORIDE [3] was 100.33 MEQ/L. For the same compound, the CHOLESTEROL [3] was 58.67 mg/dL, the “CREATINE PHOSPHOKINASE” value [3] was 259 u/L and the CREATININE [3] was 0.14 mg/dL. The GLUCOSE [3] was 148.33 mg/dL, the “LACTATE DEHYDROGENASE” value [3] was 110 u/L and the LIPASE [3] was 9.33 u/L. It also gave a PHOSPHORUS [3] of 9.93 mg/dL, a POTASSIUM [3] of 5.45 MEQ/L and an SODIUM [3] of 144.47 MEQ/L. For the same compound, the “TOTAL BILIRUBIN” value [3] was 0.2 mg/dL, the “TOTAL PROTEIN” value [3] was 5.73 G/DL and the “URIC ACID” value [3] was 0.7 mg/dL.
